Two compounds from US20240156832A1, “METHODS OF METABOLIZING METOPIMAZINE AND ITS SALTS” (Neurogastrx, Inc., priority 2020, published 2024) can be followed below.

Data set [1] is described as follows: Incubation of MPZ in human liver S9. It counts as in vitro ADME. Here is the method:
(§1) Initial experiment was conducted with S9 fractions from liver and intestine to assess the role of liver and intestinal enzymes in the metabolism of MPZ. The reaction mixture contained 2.5 μM MPZ, pooled human liver or intestine S9 fraction (1 mg/mL S9 protein), 100 mM KPi buffer (pH 7.4). The reaction mixture was pre-incubated for 3-5 min at 37° C. in a humidified incubator filled with 5% CO2 followed by the addition of NADPH (1 mM) to initiate the reaction. The reaction was incubated for 0 and 60 min. The total percentage of organic solvent in incubation mixture was <0.1%. The reactions were terminated by the addition of sample mixture of acetonitrile and ethanol (90:10, v/v). The positive control substrate, 7-EC, was incubated in triplicate in an identical manner as MPZ for S9 fractions.

For data set [2] the following is noted: for Peak Area at Time 0 / Peak Area at Time 90 min: metopimazine incubation in human liver microsomes, full scan LC-MS. The procedure: For protein concentration optimization, MPZ at 1 μM was incubated with varying concentration of HLM proteins (0.1, 0.25, 0.5, and 1.0 mg/mL microsomal protein), 100 mM KPi buffer (pH 7.4). After pre-incubation for 3-5 minutes at 37° C., the reaction was initiated by the addition of NADPH (1 mM) for 60 minutes in triplicates.
For incubation time optimization, MPZ at 1 μM was incubated with pooled HLM (0.5 mg/mL microsomal protein) and 100 mM KPi buffer (pH 7.4). After pre-incubation for) for 3-5 minutes at 37° C., the reaction was initiated by the addition NADPH (1 mM) incubated for 0, 10, 20, 40, 60, and 90 minutes to determine the optimal incubation time (linear range). All metabolic reactions in this study were terminated by the addition of chilled organic solvent (acetonitrile:ethanol 90:10, v/v) containing internal standards, unless otherwise indicated.
LC separation conditions were developed for MPZ and its metabolites (MPZA and MPZS), 7 hydroxycoumarin, each metabolite of CYP probe substrate, benzydamine N oxide, and phthalazine. The LC MS/MS system consisted of a Shimadzu Nexera X2 LC-30 UPLC system (Shimadzu Corporation, Kyoto, Japan), and an API 4000 triple quadrupole mass spectrometer (SCIEX, Framingham, MA) was used for analysis. All analytes were analyzed using electrospray ionization (ESI) in positive ion mode except for 7-EC, which used negative ion mode. The LC-MS/MS system was controlled by Analyst software (version 1.6.1, SCIEX, Framingham, MA).
For each analytical method, a calibration curve was generated for the quantification of MPZ and its two metabolites (MPZA and MPZS). […] PAR was also used for all positive control compounds.
% parent remaining=(mean concentration or PAR at each sampling time point/mean concentration or PAR of time zero)×100
A general note: Liver microsomes are a subcellular fraction often used to study metabolism.

A short description of another data set: Rat PK study. It counts as in vivo, Sprague Dawley rats. Here is the method: The pharmacokinetics of metopimazine (parent) and metopimazine acid (metabolite) were evaluated in male and female Sprague Dawley rats following a single oral dose of 45 mg/kg metopimazine (free base). Three animals per sex in each dose group were sampled at each timepoint after administration (0.25, 0.5, 1, 2, 4, 8, 12, and 24 hours). The rats (Rattus norvegicus) were obtained from Envigo RMS, Inc. (Indianapolis, IN) and were 2 months old. Animals were weighed prior to each dose administration for the purpose of dose calculation. Whole venous blood samples of approximately 0.5 mL were collected from a peripheral vein of animals for determination of exposure to metopimazine and metopimazine acid. Three animals per sex were sampled at each timepoint. Samples were collected in tubes containing K2EDTA with protease inhibitor cocktail (Sigma, #P8340, at ratio 1:100) and placed on ice until processed for plasma by centrifugation under refrigeration for at least ten minutes at 3000 rpm. After centrifugation, supernatant was removed and stored frozen in a −70° C. freezer until analyzed by LC-MS/MS.
(§2) An MRM LC-MS/MS method was developed for MPZ and metopimazine acid (MPZA) in rat, dog, and human plasma. The method was run in reverse phase in positive ion mode. […] D6-isotopically labeled internal standards were used for each analyte. The following m/z transitions were monitored: metopimazine 446.3→141.1 and metopimazine acid 447.2→142.1.
(§3) Noncompartmental Pharmacokinetics analysis was performed in Phoenix 64 Winnonlin version 8.1.

The nature of another data set: Dog PK study. It counts as in vivo, beagle dogs. Here is the method:
The pharmacokinetics of metopimazine (parent) and metopimazine acid (metabolite) were evaluated in three male, beagle dogs following a single oral dose of 10 mg/kg metopimazine (free base). The dogs were obtained from Marshall BioResources (North Rose, NY). Animals were weighed prior to each dose administration for the purpose of dose calculation. Metopimazine was administered in size 13 gelatin capsules. Whole venous blood samples of approximately 1.0 mL were collected from a peripheral vein of all animals for determination of metopimazine and metopimazine acid. Samples were collected at the following timepoints: 0.25, 0.5, 1, 2, 4, 8, 12, and 24 hours after test article administration. All animals were sampled at each timepoint. Samples were collected in tubes containing K2EDTA and placed on ice until processed for plasma by centrifugation under refrigeration for at least ten minutes at 3000 rpm. After centrifugation, supernatant was removed and stored frozen in a −70° C. freezer until analyzed by LC-MS/MS.
as §2, §3

A short description of data set [3]: Incubation of MPZ in human intestine S9. It counts as in vitro ADME. As to conditions: human intestine S9 1 mg/mL, 2.5 μM MPZ, 60 min. Here is the method: as §1
Data set [4] in a line: Incubation with HKM for FMO. It is filed as in vitro ADME, human. As to conditions: HKM pH 8.4, NADPH, with/without methimazole, heat inactivation. The procedure: MPZ, at 1.0 and 10.0 μM, was incubated with HLM or HKM to determine the contribution of microsomal FMOs on the metabolism of MPZ. A reaction mixture containing KPi buffer (pH 8.4), HLM or HKM (0.5 mg/mL protein) and MPZ (1.0 and 10.0 μM) was pre-incubated for 3-5 minutes at 37° C. The reaction was initiated by the addition of NADPH into the reaction mixture. Reaction was conducted for 0 and 60 min. A positive control (benzydamine, 100 μM) was incubated in duplicate for 0 and 20 minutes. Parallel incubation was conducted by adding 1 mM methimazole, a non-specific FMO inhibitor, under identical conditions. Heat inactivated microsomes (50° C. for at least 5 minutes) was incubated under identical conditions negative control. All other procedures were the same as described previously.

The mark [5] stands for this setting: female, Sprague Dawley, rat, in vivo, po, 45 mg/kg.
The mark [6] stands for this setting: male, Sprague Dawley, rat, in vivo, po, 45 mg/kg.
Setting [7] is: male, beagle, dog, in vivo, po, 10 mg/kg.

Usually AUC(0-inf) stands for the area under the concentration-time curve extrapolated to infinity. Read a low AUC(0-inf) as less exposure. For orientation: Cmax means the maximum level reached in the sampled fluid or tissue. The Tmax is the time from dosing to the highest level. With `CS(=O)(=O)c1ccc2c(c1)N(CCCN1CCC(C(=O)O)CC1)c1ccccc1S2` [MPZA, metopimazine acid], in data set [1] (human liver S9, 60-minute incubation), the metabolites formed entry is on record as “formed”. In addition, in data set [2], the “Peak Area at Time 0” value is recorded as 0 and the “Peak Area at Time 90 min” value is listed as 208. Further, in “Rat PK study” (setting [5]), the AUC(0-inf) was 944 ng·h/mL, the highest concentration (Cmax) was determined as 106 ng/mL and the Tmax is reported as 4 h. In “Rat PK study” (setting [6]), this compound displayed an AUCinf of 755 ng·h/mL and a Cmax of 89 ng/mL. Moreover, the “MPZA metabolite to parent ratio compared with humans” value in the data set “Rat PK study” (rats) was “particularly lower in rats”. Moreover, the “MPZA metabolite to parent ratio compared with humans” value in the data set “Dog PK study” (dogs) is reported as “far lower in dogs”. The compound also gave an AUC(0-inf) in “Dog PK study” (setting [7]) of 1030 ng·h/mL.

On to `CS(=O)(=O)c1ccc2c(c1)N(CCCN1CCC(C(N)=O)CC1)c1ccccc1S2` [MPZ, metopimazine], for which the MPZ disappeared entry in data set [1] (human liver S9 1 mg/mL, 2.5 μM MPZ, NADPH, 60-minute incubation) is recorded as “approximately 30%”. The “metabolism of MPZ” value in data set [3] is on record as “virtually no metabolism”. For the same compound, the MPZ remaining in data set [2] (human, microsomes, 1 h, 1 μM, pH 7.4) amounted to 37.2%. In data set [2], the “Peak Area at Time 0” value was determined as 2373 and the “Peak Area at Time 90 min” value is 715. Further, the “metabolite production in HKM” value in data set [4] was “did not produce any metabolites”. In data set [4] (listed as metopimazine), the “metabolite production in HKM” value is on record as “No metabolites were produced under any condition”. For the same compound, in “Rat PK study” (setting [5]), the AUCinf came out at 13800 ng·h/mL, the Cmax was found to be 1730 ng/mL and the time to peak (Tmax) worked out at 4 h. In “Rat PK study” (setting [6]), the AUCinf stood at 8160 ng·h/mL and the Cmax turned out to be 1080 ng/mL. Besides, in the data set “Dog PK study” (setting [7]), the AUC(0-inf) was determined as 3190 ng·h/mL and the time to peak (Tmax) amounted to 0.833 h.
